Experimental data taken from PubChem BioAssay AID2060505 (Molecular Pharmacology Branch, DTP, NCI, 2025).
Values belong to the compound of their own block, whether it stands above or below them.

Tested on: 633275-114-R-J1-PDC complex spheroids, viability
Assay: Anticancer human tumor 633275-114-R-J1-PDC patient-derived endometrial adenocarcinoma cell line growth inhibition [GQUAD]
Conditions: for IC50: curve of first compound; for viability, T/C: stronger effect = lower value
Summary of the method: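 Tumor cells were grown as complex spheroids with HUVEC endothelial cells and mesenchymal stem cells as stroma. G-quadruplex stabilizers were combined with targeted agents over half-log dilutions from near the clinical Cmax, or from 10 microM.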

[1] = second compound 0.0316 µM, first compound 0.000999 µM
[2] = second compound 0.0316 µM, first compound 0.00316 µM
[3] = second compound 0.0316 µM, first compound 0.00999 µM
[4] = second compound 0.0316 µM, first compound 0.0316 µM
[5] = second compound 0.0316 µM, first compound 0.0999 µM
[6] = second compound 0.0316 µM, first compound 0.316 µM
[7] = second compound 0.1 µM, first compound 0.000999 µM
[8] = second compound 0.1 µM, first compound 0.00316 µM
[9] = second compound 0.1 µM, first compound 0.00999 µM
[10] = second compound 0.1 µM, first compound 0.0316 µM
[11] = second compound 0.1 µM, first compound 0.0999 µM
[12] = second compound 0.1 µM, first compound 0.316 µM
[13] = second compound 0.316 µM, first compound 0.000999 µM
[14] = second compound 0.316 µM, first compound 0.00316 µM
[15] = second compound 0.316 µM, first compound 0.00999 µM
[16] = second compound 0.316 µM, first compound 0.0316 µM
[17] = second compound 0.316 µM, first compound 0.0999 µM
[18] = second compound 0.316 µM, first compound 0.316 µM
[19] = second compound 1 µM, first compound 0.000999 µM
[20] = second compound 1 µM, first compound 0.00316 µM
[21] = second compound 1 µM, first compound 0.00999 µM
[22] = second compound 1 µM, first compound 0.0316 µM
[23] = second compound 1 µM, first compound 0.0999 µM
[24] = second compound 1 µM, first compound 0.316 µM
[25] = second compound 3.16 µM, first compound 0.000999 µM
[26] = second compound 3.16 µM, first compound 0.00316 µM
[27] = second compound 3.16 µM, first compound 0.00999 µM
[28] = second compound 3.16 µM, first compound 0.0316 µM
[29] = second compound 3.16 µM, first compound 0.0999 µM
[30] = second compound 3.16 µM, first compound 0.316 µM
[31] = second compound 10 µM, first compound 0.000999 µM
[32] = second compound 10 µM, first compound 0.00316 µM
[33] = second compound 10 µM, first compound 0.00999 µM
[34] = second compound 10 µM, first compound 0.0316 µM
[35] = second compound 10 µM, first compound 0.0999 µM
[36] = second compound 10 µM, first compound 0.316 µM
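Note: spheroids exposed to the agents for seven days.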
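Throughout, for viability, T/C: percent of DMSO vehicle control viability which is 100%.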

Compound: CCc1c2c(nc3ccc(O)cc13)-c1cc3c(c(=O)n1C2)COC(=O)[C@]3(O)CC + Cc1[nH]c2ccc(F)cc2c1-c1nc2c3cccnc3c3ncccc3c2[nH]1
- IC50 (second compound 0.0316 µM): 2.44 nM
- IC50 (second compound 0.1 µM): 3.09 nM
- IC50 (second compound 0.316 µM): 2.7 nM
- IC50 (second compound 1 µM): 2.27 nM
- IC50 (second compound 3.16 µM): 1.62 nM
- IC50 (second compound 10 µM): 1.41 nM
- viability, T/C [1]: 69.7%
- viability, T/C [2]: 42.2%
- viability, T/C [3]: 36.2%
- viability, T/C [4]: 31.7%
- viability, T/C [5]: 30%
- viability, T/C [6]: 24.7%
- viability, T/C [7]: 71.1%
- viability, T/C [8]: 47.1%
- viability, T/C [9]: 37.2%
- viability, T/C [10]: 34.3%
- viability, T/C [11]: 27.3%
- viability, T/C [12]: 22.3%
- viability, T/C [13]: 68.8%
- viability, T/C [14]: 44.2%
- viability, T/C [15]: 37.5%
- viability, T/C [16]: 31.4%
- viability, T/C [17]: 28%
- viability, T/C [18]: 22.4%
- viability, T/C [19]: 62.6%
- viability, T/C [20]: 43.5%
- viability, T/C [21]: 35.1%
- viability, T/C [22]: 32.3%
- viability, T/C [23]: 27.5%
- viability, T/C [24]: 23.4%
- viability, T/C [25]: 57.5%
- viability, T/C [26]: 38.9%
- viability, T/C [27]: 33.2%
- viability, T/C [28]: 30.8%
- viability, T/C [29]: 27.6%
- viability, T/C [30]: 25.8%
- viability, T/C [31]: 55.2%
- viability, T/C [32]: 37.7%
- viability, T/C [33]: 33%
- viability, T/C [34]: 29.5%
- viability, T/C [35]: 24.8%
- viability, T/C [36]: 23.7%

- IC50 (second compound 0.0316 µM): 32.8 nM
- IC50 (second compound 0.1 µM): 1.27 nM
- IC50 (second compound 0.316 µM): 1.65 nM
- IC50 (second compound 1 µM): < 0.999 nM
- IC50 (second compound 3.16 µM): < 0.999 nM
- IC50 (second compound 10 µM): < 0.999 nM
Compound: CC[C@@]1(O)C(=O)OCc2c1cc1n(c2=O)Cc2cc3c(CN(C)C)c(O)ccc3nc2-1 + Cc1cnc(CNC(=O)c2c(=O)c3ccc(N4CCCN(C)CC4)nc3n3c2sc2ccccc23)cn1
- viability, T/C [1]: 63.9%
- viability, T/C [2]: 62.7%
- viability, T/C [3]: 53.8%
- viability, T/C [4]: 54.5%
- viability, T/C [5]: 38.4%
- viability, T/C [6]: 32.8%
- viability, T/C [7]: 50.7%
- viability, T/C [8]: 47.6%
- viability, T/C [9]: 47.5%
- viability, T/C [10]: 42.6%
- viability, T/C [11]: 41%
- viability, T/C [12]: 36.5%
- viability, T/C [13]: 49.7%
- viability, T/C [14]: 49.1%
- viability, T/C [15]: 48.5%
- viability, T/C [16]: 40.1%
- viability, T/C [17]: 34.7%
- viability, T/C [18]: 33.4%
- viability, T/C [19]: 40%
- viability, T/C [20]: 40.6%
- viability, T/C [21]: 39.1%
- viability, T/C [22]: 40.5%
- viability, T/C [23]: 39.9%
- viability, T/C [24]: 35.2%
- viability, T/C [25]: 38.4%
- viability, T/C [26]: 37.9%
- viability, T/C [27]: 37.7%
- viability, T/C [28]: 33.1%
- viability, T/C [29]: 35.9%
- viability, T/C [30]: 29.9%
- viability, T/C [31]: 31.7%
- viability, T/C [32]: 35.8%
- viability, T/C [33]: 29.8%
- viability, T/C [34]: 31.9%
- viability, T/C [35]: 32.7%
- viability, T/C [36]: 28.4%

Compound: Cn1ncnc1[C@H]1c2n[nH]c(=O)c3cc(F)cc(c23)N[C@@H]1c1ccc(F)cc1 + CN(C)c1ccc(Nc2c3ccc(NC(=O)CCN4CCCC4)cc3nc3cc(NC(=O)CCN4CCCC4)ccc23)cc1
- IC50 (second compound 0.0316 µM): > 316 nM
- IC50 (second compound 0.1 µM): > 316 nM
- IC50 (second compound 0.316 µM): > 316 nM
- IC50 (second compound 1 µM): > 316 nM
- IC50 (second compound 3.16 µM): > 316 nM
- IC50 (second compound 10 µM): < 0.999 nM
- viability, T/C [1]: 103%
- viability, T/C [2]: 95.6%
- viability, T/C [3]: 82%
- viability, T/C [4]: 76.8%
- viability, T/C [5]: 65.4%
- viability, T/C [6]: 55.5%
- viability, T/C [7]: 97.6%
- viability, T/C [8]: 101%
- viability, T/C [9]: 98%
- viability, T/C [10]: 74.8%
- viability, T/C [11]: 70.6%
- viability, T/C [12]: 63.1%
- viability, T/C [13]: 95.2%
- viability, T/C [14]: 102%
- viability, T/C [15]: 86.5%
- viability, T/C [16]: 86.4%
- viability, T/C [17]: 71.2%
- viability, T/C [18]: 52.9%
- viability, T/C [19]: 102%
- viability, T/C [20]: 96.2%
- viability, T/C [21]: 91.9%
- viability, T/C [22]: 77.1%
- viability, T/C [23]: 63.6%
- viability, T/C [24]: 54.4%
- viability, T/C [25]: 84.9%
- viability, T/C [26]: 91.2%
- viability, T/C [27]: 79.7%
- viability, T/C [28]: 70%
- viability, T/C [29]: 59.3%
- viability, T/C [30]: 49.6%
- viability, T/C [31]: 31.5%
- viability, T/C [32]: 35.2%
- viability, T/C [33]: 35.4%
- viability, T/C [34]: 29.7%
- viability, T/C [35]: 26.3%
- viability, T/C [36]: 22%
